Tests used:
Assay in all cases: Pre-emergence test
Format in all cases: in vivo
Galium aparine (GALAP) = conditions: 3 weeks after treatment
Protocol: (§1) To evaluate their herbicidal activity, compounds according to the invention are tested using a representative range of plants: […] The pre-emergence tests involve spraying a liquid formulation of the compound onto the soil in which the seeds of the plant species mentioned above has recently been sown. The soil used in the tests is a prepared horticultural loam. […] In these tests untreated sown soil are used as controls.

Lamium purpureum (LAMPU) = conditions: 3 weeks after treatment
Protocol: as §1

[1] = tested on: Alopecurus myosuroides (ALOMY); conditions: 3 weeks after treatment
Protocol: as §1

Zea mays (ZEAMX) = conditions: crop (corn), 3 weeks after treatment
Protocol: as §1

[2] = tested on: Cassia obtusifolia (CASOB); conditions: 3 weeks after treatment
Protocol: as §1

[3] = tested on: Echinochloa crus-galli (ECHCG); conditions: 3 weeks after treatment
Protocol: as §1

Stellaria media (STEME) = conditions: 3 weeks after treatment
Protocol: as §1

[4] = tested on: Matricaria inodora (MATIN); conditions: 3 weeks after treatment
Protocol: as §1

[5] = tested on: Abutilon theophrasti (ABUTH); conditions: 3 weeks after treatment
Protocol: as §1

[6] = tested on: Ipomoea hederacea (IPOHE); conditions: 3 weeks after treatment
Protocol: as §1

Setaria viridis (SETVI) = conditions: 3 weeks after treatment
Protocol: as §1

[7] = tested on: Lolium multiflorum (LOLMU); conditions: 3 weeks after treatment
Protocol: as §1

[8] = tested on: Digitaria sanguinalis (DIGSA); conditions: 3 weeks after treatment
Protocol: as §1

In the case of Cn1nc(C(F)(F)F)cc1Oc1cccc(-n2ccc(C(F)(F)F)n2)n1 [Comparison], the “Assessment rating GALAP (pre-emergence application)” value (shortened to “Assessment rating GALAP”) (Galium aparine (GALAP); 0.013 kg/ha) is reported as 0 (0 - No effect), the “Assessment rating GALAP” value (Galium aparine (GALAP); 0.025 kg/ha) is reported as 1 (1 - Trace effect) and the “Assessment rating GALAP” value (Galium aparine (GALAP); 0.100 kg/ha) is reported as 2 (2 - Slight effect). The “Assessment rating GALAP” value (Galium aparine (GALAP); 0.400 kg/ha) was 8 (8 - Approaching complete kill), the “Assessment rating LAMPU (pre-emergence application)” value (“Assessment rating LAMPU” below) (Lamium purpureum (LAMPU); 0.013 kg/ha) was 1 (1 - Trace effect) and the “Assessment rating LAMPU” value (Lamium purpureum (LAMPU); 0.025 kg/ha) was 6 (6 - Herbicidal effect). For the same molecule, the “Assessment rating LAMPU” value (Lamium purpureum (LAMPU); 0.100 kg/ha) was 8 (8 - Approaching complete kill), the “Assessment rating LAMPU” value (Lamium purpureum (LAMPU); 0.400 kg/ha) was 8 (8 - Approaching complete kill) and the “Assessment rating ALOMY (pre-emergence application)” value (from here on “Assessment rating ALOMY”) ([1]; 0.013 kg/ha) was 0 (0 - No effect). For the same molecule, the “Assessment rating ALOMY” value ([1]; 0.025 kg/ha) was 1 (1 - Trace effect), the “Assessment rating ALOMY” value ([1]; 0.100 kg/ha) was 4 (4 - Injury) and the “Assessment rating ALOMY” value ([1]; 0.400 kg/ha) was 8 (8 - Approaching complete kill). The “Assessment rating ZEAMX (pre-emergence application)” value (shortened to “Assessment rating ZEAMX”) (Zea mays (ZEAMX); 0.013 kg/ha) was 0 (0 - No effect), the “Assessment rating ZEAMX” value (Zea mays (ZEAMX); 0.025 kg/ha) was 0 (0 - No effect) and the “Assessment rating ZEAMX” value (Zea mays (ZEAMX); 0.100 kg/ha) was 1 (1 - Trace effect). The “Assessment rating ZEAMX” value (Zea mays (ZEAMX); 0.400 kg/ha) was 2 (2 - Slight effect), the “Assessment rating CASOB (pre-emergence application)” value (“Assessment rating CASOB” below) ([2]; 0.013 kg/ha) was 0 (0 - No effect) and the “Assessment rating CASOB” value ([2]; 0.025 kg/ha) was 0 (0 - No effect). The “Assessment rating CASOB” value ([2]; 0.100 kg/ha) was 2 (2 - Slight effect), the “Assessment rating CASOB” value ([2]; 0.400 kg/ha) was 5 (5 - Definite injury) and the “Assessment rating ECHCG (pre-emergence application)” value (from here on “Assessment rating ECHCG”) ([3]; 0.013 kg/ha) was 0 (0 - No effect). For the same molecule, the “Assessment rating ECHCG” value ([3]; 0.025 kg/ha) was 2 (2 - Slight effect), the “Assessment rating ECHCG” value ([3]; 0.100 kg/ha) was 4 (4 - Injury) and the “Assessment rating ECHCG” value ([3]; 0.400 kg/ha) was 7 (7 - Good herbicidal effect). The “Assessment rating STEME (pre-emergence application)” value (shortened to “Assessment rating STEME”) (Stellaria media (STEME); 0.013 kg/ha) was 0 (0 - No effect), the “Assessment rating STEME” value (Stellaria media (STEME); 0.025 kg/ha) was 8 (8 - Approaching complete kill) and the “Assessment rating STEME” value (Stellaria media (STEME); 0.100 kg/ha) was 8 (8 - Approaching complete kill). The “Assessment rating STEME” value (Stellaria media (STEME); 0.400 kg/ha) was 9 (9 - Complete kill), the “Assessment rating MATIN (pre-emergence application)” value (“Assessment rating MATIN” below) ([4]; 0.013 kg/ha) was 2 (2 - Slight effect) and the “Assessment rating MATIN” value ([4]; 0.025 kg/ha) was 7 (7 - Good herbicidal effect). For the same molecule, the “Assessment rating MATIN” value ([4]; 0.100 kg/ha) was 9 (9 - Complete kill), the “Assessment rating MATIN” value ([4]; 0.400 kg/ha) was 9 (9 - Complete kill) and the “Assessment rating ABUTH (pre-emergence application)” value (from here on “Assessment rating ABUTH”) ([5]; 0.013 kg/ha) was 0 (0 - No effect). The “Assessment rating ABUTH” value ([5]; 0.025 kg/ha) was 0 (0 - No effect), the “Assessment rating ABUTH” value ([5]; 0.100 kg/ha) was 5 (5 - Definite injury) and the “Assessment rating ABUTH” value ([5]; 0.400 kg/ha) was 9 (9 - Complete kill). The “Assessment rating IPOHE (pre-emergence application)” value (shortened to “Assessment rating IPOHE”) ([6]; 0.013 kg/ha) was 0 (0 - No effect), the “Assessment rating IPOHE” value ([6]; 0.025 kg/ha) was 1 (1 - Trace effect) and the “Assessment rating IPOHE” value ([6]; 0.100 kg/ha) was 3 (3 - Moderate effect). The “Assessment rating IPOHE” value ([6]; 0.400 kg/ha) was 7 (7 - Good herbicidal effect), the “Assessment rating SETVI (pre-emergence application)” value (“Assessment rating SETVI” below) (Setaria viridis (SETVI); 0.013 kg/ha) was 2 (2 - Slight effect) and the “Assessment rating SETVI” value (Setaria viridis (SETVI); 0.025 kg/ha) was 2 (2 - Slight effect). For the same molecule, the “Assessment rating SETVI” value (Setaria viridis (SETVI); 0.100 kg/ha) was 8 (8 - Approaching complete kill), the “Assessment rating SETVI” value (Setaria viridis (SETVI); 0.400 kg/ha) was 9 (9 - Complete kill) and the “Assessment rating LOLMU (pre-emergence application)” value (from here on “Assessment rating LOLMU”) ([7]; 0.013 kg/ha) was 3 (3 - Moderate effect). For the same molecule, the “Assessment rating LOLMU” value ([7]; 0.025 kg/ha) was 5 (5 - Definite injury), the “Assessment rating LOLMU” value ([7]; 0.100 kg/ha) was 8 (8 - Approaching complete kill) and the “Assessment rating LOLMU” value ([7]; 0.400 kg/ha) was 8 (8 - Approaching complete kill). For the same molecule, the “Assessment rating DIGSA (pre-emergence application)” value (shortened to “Assessment rating DIGSA”) ([8]; 0.013 kg/ha) was 9 (9 - Complete kill), the “Assessment rating DIGSA” value ([8]; 0.025 kg/ha) was 9 (9 - Complete kill) and the “Assessment rating DIGSA” value ([8]; 0.100 kg/ha) was 9 (9 - Complete kill).

Reference: US6448204B1, “Herbicidal 2-aryloxy-4-methyl-6-pyrazol-1-yl-pyridines” (BASF Aktiengesellschaft, priority 1999, dated 2002)
